# Reference: patent publication US20090263410A1, “USE OF TGF-B1 INHIBITOR PEPTIDES IN THE PREPARATION OF AN IMMUNE RESPONSE MODULATING AGENT” (Proyecto De Biomedicina Cima, S.L., priority 2005, published 2009)
# Entries after “also recorded” stand apart in the source; their conditions may differ. Where no end group is shown, it is not given here.
# Experiments:
# [1] = system: regulatory T lymphocytes (CD25+); experiment: Inhibition of suppressant action of regulatory T lymphocytes (CD25+) on splenocyte proliferation; format: cell-based, Balb-c mice; conditions: for dose dependence of inhibition of regulatory T lymphocyte action: 50 μM and double dilutions
# Method: 1. OBTAINMENT OF TOTAL SPLENOCYTES: To obtain splenocytes from 6-week old, female Balb-c mice, 4 animals were sacrificed, and after extracting the spleen, they were transferred to a clean medium for their dispersion with crystals, the homogenate was filtered (70-micron filter) and transferred to 50-ml tubes, for their subsequent washing and centrifugation. The cells obtained were incubated for 1 minute in lysis buffer, for the elimination of erythrocytes and they were subsequently washed with clean culture medium. Finally, the cells obtained were resuspended in 1 ml of AUTOMACS medium and they were counted. 2. PURIFICATION OF CD25+ LYMPHOCYTES: the purification of CD25+ lymphocytes was performed by the use of magnetic columns labelling with CD25PE and after incubation, anti-PE magnetic microspheres (Phycoerythrin) were added. After incubation, washing and filtration (30-micron filter) the samples were passed through a magnetic column, obtaining the eluate containing the CD25− population by gravity. Once the column is extracted from the magnetic field it is washed under pressure, obtaining the CD25+ cells. 3. SUPPRESSANT ACTIVITY ASSAY: To verify the regulating nature of the CD25+ population, a total of 100,000 splenocytes was seeded per well on a U-bottomed 96-well plate, in a volume of 200 μl per well and anti-CD3 antibody ([…]) alone or opposing CD25+ or CD25−, placing 25,000 cells per well (CD25+) or 50,000 cells per well (CD25−), performing double dilutions of the concentration of these cells. 4. ASSAY FOR THE INHIBITION OF SUPPRESSANT ACTION BY PEPTIDES: On the U-bottomed 96-well plate, with 200 μl vol/well, 100,000 splenocytes were seeded per well and anti-CD3 antibody (0.5 μl/well) plus 25,000 CD25+ lymphocytes per well. Peptides were added to these mixtures (3 columns/peptide, 50 MicroM in the 1st row and double dilution in the following three rows). 3 peptides were assayed: P17(1-11) SEQ ID NO: 3, P17(1-11)am SEQ ID NO: 4 and AcP17(1-11)am SEQ ID NO: 5. Both this assay and that of the suppressant activity were incubated at 37° C. for 48 h, tritium labelled thymidine was added at 0.5 μCi/well and it is harvested after 8 h, subsequently counting the CPM emitted by the cells from each well. 5. VERIFICATION OF THE EFFECTIVE SEPARATION OF THE Treg: Labelling with fluorescent anti-CD4 and anti-CD25 antibodies and analysis by flow cytometry (89% of the population magnetically separated is DC4+CD25+).
# [2] = system: MC38, LLC, CT26 and RENCA tumour lines; experiment: NK cell cytotoxicity, 51Cr release assay; format: cell-based, mouse; conditions: effector cells with/without p17 for 6 days; 4.5 h 51Cr release
# Method: They were performed from spleen cells from RAG^−/− mice, without T and B lymphocytes. In some cases, the total splenocytes was cultured on 6-well plates at 4×10^6 cells per ml of RPMI medium enriched with 10% SBF, L-glutamine, antibiotics, non-essential amino acids, β-mercaptoethanol and human recombinant interleukin-2 (Chiron) at 600 IU/ml. In half the wells, peptide p17 was added at a concentration of 150 μg/ml. After 48 hours, the medium was removed and the wells were washed with RPMI medium to discard the non-adherent cells. Next, fresh medium was added with/without peptide. On day +5, the medium was again changed, this time replacing all the cells and peptide p17 in the corresponding cultures. The cells counts with trypan blue were performed on days +5 and +6 of this culture. In other cases, NK cells from mouse splenocytes were purified by an immunomagnetic selection using the MiniMACS system, anti-DX5 beads and MS columns (Miltenyi Biotech) according to the manufacturer's instructions. […]
# The cytotoxicity of NK cells was verified by standard 4.5 h ^51Cr release assays. […] Finally, the release of ^51Cr due to lysis by NK cells was measured after 4.5 h in a TopCount Scintillation counter (Perkin Elmer). The cytotoxicity was measured as a percentage of Cr released with respect to the total acquired by the cells. […]
# CT26 cells = experiment: Tumour growth of subcutaneous CT26 in AH1-immunized mice treated with peptides; format: in vivo, balb-c mice; conditions: 50 μg/mouse/48 h i.p. between days 6 and 10, s.c. CT26 on day 0, AH1 immunization 10 days before
# Method: GROUPS: 4 groups of 7 female balb-c mice, of 6 weeks old/group.
# AH1+FIA s.c.+p144 (50 μg i.p./dose/mouse) AH1+FIA s.c.+p17(1-11) (50 μg i.p./dose/mouse) DESIGN: AH1+FIA: […]; Peptides: from day −6 on alternate days until day 10: Tumour model volume: Each 3 days from day 10 to day 41. Challenge on day 0 with CT26 (500000 cells/mouse s.c. in the flank).
# REDUCTION IN THE MEAN TUMOUR VOLUME BY GROUPS TREATED WITH PEPTIDES: The effect of peptides p144 and p17(1-11)Am was studied in a tumour progression model. In this model, mice were immunized with 50 μg of AH1 10 days before the administration of 5×10^5 CT26 cells. In order to verify the effect of blocking the TGF-β1 on the protection against CT tumour cells, another two groups of mice were treated on alternate days by intraperitoneal route between days 6 and 10 (50 μg/mouse/48 h) with peptides p144 and p17(1-11)Am. […] This protection reached 100% of the animals in the case of p144 (FIG. 16).
Substance,dose dependence of inhibition of regulatory T lymphocyte action [1],inhibition of the suppressant effect of regulatory T lymphocytes ([1]; peptide 25 μM),inhibition of the suppressant effect of regulatory T lymphocytes ([1]; peptide 50 μM),cytotoxic activity of NK cells against tumour lines [2],"inhibition of the suppressant effect of regulatory T lymphocytes ([1]; peptide 50 μM, listed as P17(1-1)am)",tumour growth (CT26 cells),tumour growth (CT26 cells; listed as p17(1-11)Am)
"Acp17(1-11)am: p17(1-11)am which further has position 1 (lysine) acetylated, SEQ ID NO: 5 (Ac-KRIWFIPRSSW-NH2)",dose-dependent,148%,totally inhibiting,,,,
KRIWFIPRSSWYERA [p17],,,,improves the cytotoxic activity; also recorded: increases the cytotoxicity,,,
"p17(1-11): fragment of peptide p17, amino acids 1 to 11, SEQ ID NO: 3 (KRIWFIPRSSW)",,,20%,,,,
"p17(1-11)am: amino acids 1 to 11 of peptide p17, position 11 (tryptophan) amidated, SEQ ID NO: 4 (KRIWFIPRSSW-NH2)",dose-dependent,,128%,,totally inhibiting,delay tumour growth,protection against tumour growth
